These results are taken from patent US6670307B2, “1,3-oxazoline and 1,3-thiazoline derivatives, their preparation, and their use as pesticides” (Hoechst Schering AgrEvo GmbH, priority 1998, dated 2003).

One may read the melting point as the temperature of the solid-liquid transition. As a reminder, the mortality is the share of the test organisms that died.

Data set [1] relates to Diabrotica undecimpunctata. As to the kind of experiment: Effect on the corn budworm Diabrotica undecimpunctata (L2 larvae, soil application). As to conditions: for mortality of the test animals: 300 ppm (based on active substance content), 1 ml pipetted onto soil, L2 larvae, after 5 days at 21° C.; for mortality at 300 ppm: Diabrotica undecimpunctata, soil, 120 h, read-out: mortality of the test animals. It is filed as in vivo. On the procedure: Effect on the Corn Budworm Diabrotica undecimpunctata
Maize seed was pregerminated for 6 hours while submerged in water, then placed into 10-ml glass tubes and covered with 2 ml of soil in each case. After 1 ml of water had been added, the plants remained in the glass tubes at 21° C. until plant length was approx. 3 cm. 10 L2 larvae of the corn budworm (Diabrotica undecimpunctata) were then introduced into each tube on the soil. Two hours later, 1 ml of an aqueous solution of the formulated preparation to be tested were pipetted onto the soil surface in the tubes. After storage for 5 days under laboratory conditions at 21° C., the soil and root sections were examined for live Diabrotica larvae and the mortality was determined. At a concentration of 300 ppm (based on the active substance content), a 100% mortality of the test animals employed was shown by the preparations of Example 2, 3, 5, 9, 19, 39.

The next data set relates to Lucilia cuprina. In words: Effect on the larvae of the copperbottle Lucilia cuprina (treated nutrient medium). Format: in vivo. To be noted: for mortality in the fly larvae: 100 ppm in larval nutrient medium of ground mutton, monitored over 72 hours; for mortality at 100 ppm: Lucilia cuprina, 72 h, read-out: mortality in the fly larvae. On the procedure: Effect on the Larvae of the Copperbottle Lucilia cuprina
In a sample container, 20 recently hatched larvae of the copperbottle Lucilia cuprina were placed on a larval nutrient medium of ground mutton which contained the test substance in a concentration of 100 ppm. Larval growth on the nutrient medium is monitored over 72 hours up to larva 3. At a concentration of 100 ppm (based on the active substance content), a 100% mortality in the fly larvae employed was shown by the preparations of Examples 2, 3, 4, 5, 105, 106.

A further data set has as its system Tetranychus urticae. In words: Effect on the spider mites Tetranychus urticae (spray on infested bean plants). It is filed as in vivo. To be noted: 168 h, read-out: mortality of all mite stages. The method, then:
Effect on the Spider Mites Tetranychus urticae
Bean plants (Phaseolus vulgaris) which were severely infested with a complete population of spider mites (Tetranychus urticae) were sprayed to runoff point with an aqueous solution of the formulated preparation to be tested. The mortality of all mite stages was determined after 7 days. At a concentration of 300 ppm (based on active substance content), a 90-100% mortality was shown by the preparations of Examples 1, 2, 3, 4, 7, 8, 9, 14, 18, 21, 31, 40, 41, 43, 44, 47, 51, 106, 152 and 153.

The next data set concerns Aphis fabae. As to the kind of experiment: Effect on the aphid Aphis fabae (spray on infested field beans). It is filed as in vivo. As to conditions: 72 h, read-out: mortality of the aphids. On the procedure: Effect on the Aphid Aphis fabae
Field beans (Vicia faba) which were densly populated with the black bean aphid (Aphis fabae) were sprayed to runoff point with an aqueous solution of the formulated preparation to be tested. The mortality of the aphids was determined after 3 days. At a concentration of 300 ppm (based on the active substance content), a 90-100% mortality was shown by the preparations of Examples 1, 2, 3, 4, 7, 8, 152.

In the next data set the test system is Spodoptera litoralis. As to the kind of experiment: Effect on the butterfly larva Spodoptera litoralis (L4 larvae, Petri dish spray). Format: in vivo. As to conditions: 96 h, read-out: larval mortality. The method, then: Effect on the Butterfly Larva Spodoptera litoralis
Ten L4 larvae of the Egyptian cotton leafworm (Spodoptera litoralis) were introduced into a Petri dish whose bottom was covered with filter paper and contained approx. 5 ml of nutrient medium. Filter paper, nutrient paper and the larvae which had been introduced were then sprayed with an aqueous solution of the formulated preparation to be tested. The Petri dish was subsequently sealed with a lid. After 4 days' storage at approx. 23° C., the effect of the preparation on the larvae was determined. At a concentration of 300 ppm (based on the active substance content), a 90-100% larval mortality was caused by the preparations of Examples 3, 4, 22, 105, 106.

Another data set concerns Heliothis virescens. In words: Effect on the egg-larval stage of Heliothis virescens. It is filed as in vivo. As to conditions: 144 h, read-out: mortality of eggs and any larvae hatched from them. The method, then:
Effect on the Egg-Larval Stage of Heliothis virescens
A Petri dish whose bottom was covered with filter paper and which contained approx. 5 ml of nutrient medium was prepared. Filter paper sections containing approx. 30 24-hour-old eggs of the tobacco budworm (Heliothis virescens) were immersed for 5 seconds into an aqueous solution of the formulated preparation to be tested and subsequently placed in the Petri dish. A further 200 μl of the aqueous solution were distributed over the nutrient medium. After the Petri dish had been sealed, it was stored in a controlled-environment cabinet at approx. 25° C. After 6 days' storage, the mortality of the preparation on the eggs and any larvae hatched from them was determined. At a concentration of 300 ppm (based on the active substance content), a 90-100% mortality was caused by the preparations of Examples 1, 2, 3, 4, 5, 6, 7, 8, 14, 17, 21, 22, 23, 34, 35, 39, 40, 43, 44, 106.

Another data set has as its system Ctenocephalides felis. As to the kind of experiment: Effect on developmental stages of the cat flea Ctenocephalides felis (treated larval medium). It is filed as in vivo. To be noted: 1000 ppm in larval nutrient medium, approx. 30 flea eggs, read-out: mortality (hatching of flea larvae and development into pupae and adult fleas). The text has this:
Effect on Developmental Stages of the Cat Flea Ctenocephalides felis
The larval nutrient medium of the cat flea, composed of equal parts of blood meal and quartz sand, was admixed with the test substance at a concentration of 1000 ppm. Approx. 30 flea eggs freshly obtained from a breeding colony were transferred onto the medium. To assess the affect of the preparation, hatching of the flea larvae and their development into pupae and adult fleas was observed. A mortality of 100% was caused by the test substances of Examples 2, 3 and 4.

On to `CC(C)Oc1ccc(-c2ccc(C3COC(c4c(F)cccc4F)=N3)cc2)cn1` (stereo not shown) [Example 5], for which the “mortality of the test animals” value in data set [1] was found to be 100%. Besides, the “mortality in the fly larvae” value in the data set with Lucilia cuprina amounted to 100%.
`Fc1ccccc1C1=NC(c2ccc(-c3ccc(OCC(F)(F)F)nc3)cc2)CO1` (stereo not shown) [Example 402, 2-(2-Fluorophenyl)-4-[4-(2-trifluoroethoxypyridin-5-yl)phenyl]oxazoline]: the melting point worked out at 101 °C.
Turning to `Fc1cccc(F)c1C1=NC(c2ccc(-c3ccc(OCC(F)(F)F)nc3)cc2)CO1` (stereo not shown) [Example 3, 2-(2,6-Difluorophenyl)-4-[4-(2-trifluoroethoxypyridin-5-yl)phenyl]oxazoline], the mortality at 300 ppm was 90 to 100% in the data set on Tetranychus urticae; 90 to 100% in the data set on Aphis fabae; 90 to 100% with Spodoptera litoralis; 90 to 100% in the data set on Heliothis virescens; 100% in data set [1]. Moreover, the mortality at 100 ppm in the data set with Lucilia cuprina was 100%. Further, the mortality at 1000 ppm with Ctenocephalides felis turned out to be 100%.
With `CCCOc1ccc(-c2ccc(C3COC(c4c(F)cccc4F)=N3)cc2)cn1` (stereo not shown) [Example 4, 2-(2,6-Difluorophenyl)-4-[4-(2-n-propyloxypyridin-5-yl)phenyl]oxazoline], the mortality at 300 ppm in the data set on Tetranychus urticae, with Aphis fabae, in the data set with Spodoptera litoralis and in the data set on Heliothis virescens was 90 to 100% throughout. In the data set on Lucilia cuprina, the mortality at 100 ppm came out at 100%. In addition, the mortality at 1000 ppm in the data set on Ctenocephalides felis amounted to 100%.
For the molecule `CCOc1cc(-c2ccc(OCC(F)(F)F)nc2)ccc1C1COC(c2c(F)cccc2F)=N1` (stereo not shown) [Example 106, 2-(2,6-Difluorophenyl)-4-[2-ethoxy-4-(2-trifluoroethoxypyridin-5-yl)phenyl]-oxazoline], the mortality at 300 ppm in the data set on Tetranychus urticae, in the data set with Spodoptera litoralis and with Heliothis virescens was 90 to 100% throughout. In addition, the mortality at 100 ppm in the data set with Lucilia cuprina worked out at 100%.
Consider `CC[S+]([O-])c1ccc(-c2ccc(C3COC(c4c(F)cccc4F)=N3)cc2)cn1` (stereo not shown) [Example 40, 2-(2,6-Difluorophenyl)-4-[4-(2-ethylsulfinylpyridin-5-yl)phenyl]oxazoline], for which the mortality at 300 ppm in the data set with Tetranychus urticae and in the data set on Heliothis virescens was 90 to 100% throughout.
In the case of `CC(C)COc1ccc(-c2ccc(C3COC(c4c(F)cccc4F)=N3)cc2)cn1` (stereo not shown) [Example 8, 2-(2,6-Difluorophenyl)-4-[4-(2-isobutyloxypyridin-5-yl)phenyl]oxazoline], the mortality at 300 ppm with Tetranychus urticae, with Aphis fabae and in the data set on Heliothis virescens was 90 to 100% throughout.
`CCOc1ccc(-c2ccc(C3COC(c4c(F)cccc4F)=N3)cc2)cn1` (stereo not shown) [Example 2, 2-(2,6-Difluorophenyl)-4-[4-(2-ethoxypyridin-5-yl)phenyl]oxazoline]: the mortality at 300 ppm was 90 to 100% in the data set on Tetranychus urticae, 90 to 100% in the data set with Aphis fabae, 90 to 100% with Heliothis virescens and 100% in data set [1]. In the data set with Lucilia cuprina, the mortality at 100 ppm amounted to 100%. In the data set on Ctenocephalides felis, the mortality at 1000 ppm amounted to 100%.
With `CCSc1ccc(-c2ccc(C3COC(c4c(F)cccc4F)=N3)cc2)cn1` (stereo not shown) [Example 39, 2-(2,6-Difluorophenyl)-4-[4-(2-ethylthiopyridin-5-yl)phenyl]oxazoline], the mortality at 300 ppm in the data set on Heliothis virescens is 90 to 100%; in data set [1] it was 100%.
As to `CCOc1ccc(-c2ccc(C3COC(c4c(F)cccc4F)=N3)c(OC)c2)cn1` (stereo not shown) [Example 105], the “mortality in the fly larvae” value in the data set on Lucilia cuprina was determined as 100%.
In the case of `Fc1cccc(F)c1C1=NC(c2ccc(-c3ccc(OCC(F)(F)F)nc3)cc2)CS1` (stereo not shown) [Example 19, 2-(2,6-Difluorophenyl)-4-[4-(2-trifluoroethoxypyridin-5-yl)phenyl]thiazoline], in data set [1], the mortality at 300 ppm was found to be 100%.
`CCCc1ccc(-c2ccc(C3COC(c4c(F)cccc4F)=N3)cc2)cn1` (stereo not shown) [Example 34, 2-(2,6-Difluorophenyl)-4-[4-(2-n-propylpyridin-5-yl)phenyl]oxazoline]: the mortality at 300 ppm with Heliothis virescens was 90 to 100%.
On to `CCC(C)Oc1ccc(-c2ccc(C3COC(c4c(F)cccc4F)=N3)cc2)cn1` (stereo not shown) [Example 9], for which the “mortality of the test animals” value in data set [1] is on record as 100%.
